# Laboratory results: patent US20130251782A1, “TOPICAL APPLICATION OF INGENOL MEBUTATE WITH OCCLUSION” (LEO LABORATORIES LIMITED, priority 2012, published 2013)
# Like-named read-outs stand apart in the source and are kept apart here.
# Tests used:
# [1] = system: sBCC lesion on the trunk or extremities; assay type: in vivo
# Description: The primary objective of the clinical trial was to evaluate the safety of PEP005 Gel, 0.05% when administered for up to 3 consecutive days application (Day 1, 2 and 3), to a sBCC lesion on the trunk and extremities.
# Another objective of the clinical trial was to evaluate the efficacy of PEP005 Gel, 0.05% when administered for up to 3 consecutive days application (Day 1, 2 and 3), to a sBCC lesion on the trunk and extremities.
# This was a phase 2, multi-centre, parallel group, open-label trial to evaluate the safety and efficacy of PEP005 (ingenol mebutate) Gel, 0.05%, when administered for up to 3 consecutive days (Day 1, 2 and 3) to a sBCC lesion on the trunk or extremities.
# The trial population was planned to include 75 subjects aged at least 18 years with a primary diagnosed and histologically confirmed sBCC located on the trunk or extremities which was suitable for excision.
# Eligible subjects were randomised to receive physician-applied trial medication in one of the following 3 treatment groups:
# Group 1) PEP005 Gel, 0.05%, up to 3 consecutive days treatment, occluded with an aluminium disk;
# Group 2) PEP005 Gel, 0.05%, up to 3 consecutive days treatment, occluded with an Opsite™ disk;
# Group 3) PEP005 Gel, 0.05%, up to 3 consecutive days treatment, not occluded.
# Eligible subjects received PEP005 Gel on Days 1, 2 and 3. […] If tolerability to trial medication was maintained, the subjects received all 3 doses of PEP005 Gel, 0.05%, regardless of whether the sBCC lesion being treated was resolved or not.
# Subsequent follow-up visits for safety assessments were made on Days 2, 3 (as applicable), 4 (as applicable), 8, 15, 29, 57, 85 and 120. Histological and clinical efficacy assessments were only conducted at Day 120. If trial medication was not administered on Day 2 a follow-up visit on Day 3 or 4 was not necessary, unless clinically indicated. If trial medication was not administered on Day 3 a follow-up visit on Day 4 was not necessary, unless clinically indicated.
# The volume of PEP005 Gel applied to the selected treatment area was 30 μl for lesions with the longest axes of between 4-10 mm and 50 μl for lesions with the longest axes of between 11-15 mm.
# The actual treatment analysis set included the same subjects as in the full analysis set, i.e. 75 randomised subjects. However, 2 subjects who received the wrong treatment were assigned to their actual treatment group, i.e. PEP005 Aluminium Disk.
# Thus, in the actual treatment analysis set 27 subjects were included in PEP005 Aluminium Disk group and 24 subjects both in PEP005 Opsite™ Disk group and PEP005 No Occlusion group.
# [2] = cited from earlier work
# [3] = In vitro skin permeation and penetration of PEP005, flow through diffusion cells; assay type: in vitro ADME, pig
# Description: The in vitro skin permeation and penetration of PEP005 was investigated with various types of occlusion dressings, using flow through diffusion cells. Dressings were applied immediately (without formulation drying), as well as after the formulation had dried. Additionally, PEP005 might also be absorbed into the occlusion dressing, which also was investigated.
# Methods: The in vitro permeation and penetration of PEP005 into pig ear skin was studied using PermeGear® flow through diffusion cells (n=6 per formulation). The skin diffusion experiment was allowed to proceed for 21 hours into a recipient phase consisting of 0.04 M isotonic phosphate buffer pH 7.4. Samples from the different skin layers and recipient phase were collected in order to determine flux and skin distribution of PEP005. The samples were analysed by LC-MS/MS.
# The test formulation used is an aqueous based gel formulation containing; PEP005 0.5 mg/g, Benzyl Alcohol 9 mg/g, Isopropanol 300 mg/g, Citric acid 5.4 mg/g, Sodium Citrate dihydrate 1.4 mg/g, Hydroxyethyl Cellulose 15 mg/g and water up to 1 g, with a formulation pH of 3.2.
# Full thickness skin from pig ears was used in the study. The ears were kept frozen at −18° C. until use. Before the experiment, the ears were placed in a refrigerator (2-8° C.) for slow defrosting. The hairs were removed using a veterinary hair trimmer. The skin was cleaned for subdermal fat using a scalpel, and two pieces of skin were cut from each ear. The pieces of skin were refrozen and kept for no longer than 4 weeks. […]
# The used PermeGear® automated system incorporate nine flow through diffusion cells (1-9) made of clear glass, in which the donor and receptor chambers were separated by a diffusion membrane and held together by a pinch clamp. […] The specific volume was measured and registered for each cell. […]
# Prior to application of the formulation, the experiment was started by starting the pump. […] The formulation was applied using a glass spatula and the residual amount of formulation was determined, thus giving the actual amount of formulation applied to the skin. […]
compound,measurement,setting,value
"C/C=C(/C)C(=O)O[C@H]1C(C)=C[C@]23C(=O)[C@@H](C=C(CO)[C@@H](O)[C@]12O)[C@H]1[C@@H](C[C@H]3C)C1(C)C [PEP005, 2-methyl-2(Z)-butenoic acid (1aR,2S,5R,5aS,6S,8aS,9R,10aR)-5,5a-dihydroxy-4-(hydroxymethyl)-1,1,7,9-tetramethyl-11-oxo-1a,2,5,5a,6,9,10,10a-octahydro-1H-2,8a-methanocyclopenta[a]cyclopropa[e]cyclodecen-6-yl ester]",Number of subjects who received 1 dose (dosing continued only if tolerated),[1]; Aluminium Disk group (n = 27),22
same,Number of subjects who received 2 doses (dosing continued only if tolerated),[1]; Aluminium Disk group (n = 27),2
same,Number of subjects who received 3 doses (dosing continued only if tolerated),[1]; Aluminium Disk group (n = 27),13
same,Subjects who received 1 dose (dosing continued only if tolerated),[1]; Aluminium Disk group (n = 27),81.5%
same,Subjects who received 2 doses (dosing continued only if tolerated),[1]; Aluminium Disk group (n = 27),7.4%
same,Subjects who received 3 doses (dosing continued only if tolerated),[1]; Aluminium Disk group (n = 27),11.1%
same,Number of subjects who received 1 dose (dosing continued only if tolerated),[1]; No Occlusion group (n = 24),0
same,Number of subjects who received 2 doses (dosing continued only if tolerated),[1]; No Occlusion group (n = 24),1
same,Number of subjects who received 3 doses (dosing continued only if tolerated),[1]; No Occlusion group (n = 24),23
same,Subjects who received 1 dose (dosing continued only if tolerated),[1]; No Occlusion group (n = 24),0.0%
same,Subjects who received 2 doses (dosing continued only if tolerated),[1]; No Occlusion group (n = 24),4.2%
same,Subjects who received 3 doses (dosing continued only if tolerated),[1]; No Occlusion group (n = 24),95.8%
same,Number of subjects who received 1 dose (dosing continued only if tolerated),[1]; OpSite Disk group (n = 24),0
same,Number of subjects who received 2 doses (dosing continued only if tolerated),[1]; OpSite Disk group (n = 24),5
same,Number of subjects who received 3 doses (dosing continued only if tolerated),[1]; OpSite Disk group (n = 24),19
same,Subjects who received 1 dose (dosing continued only if tolerated),[1]; OpSite Disk group (n = 24),0.0%
same,Subjects who received 2 doses (dosing continued only if tolerated),[1]; OpSite Disk group (n = 24),20.8%
same,Subjects who received 3 doses (dosing continued only if tolerated),[1]; OpSite Disk group (n = 24),79.2%
same,Stability in alcohols,[2]; alcohols such as benzyl alcohol and isopropyl alcohol,good stability
same,Stability at low pH,[2]; low pH,good stability
same,Increase in penetrated amount of PEP005 after occlusion compared to the non-occluded treatment,"[3]; Study PMPN1028, all dressings",2-6 fold
same,Increase in permeation of PEP005 compared to the non-occluded treatment,"[3]; aluminium foil, parafilm, Coloplast vinyl film and Compeed, Study PMPN1028",9-10 fold
same,Increase in skin permeation compared to the non-occluded treatment,"[3]; semi-occlusive dressing Flexifix, Study PMPN1028",3 fold
